The test system of one data set is SARS-CoV-2. The format is cell-based. The note with it: post-treatment, Vero cells; for IL-6 expression compared to PBS: normalised to GAPDH.
The test system of another data set is EA.hy926 cells. The data set is described as follows: Peptide stability study in EA.hy926 endothelial cells, LCMS (Example 4). The format is in vitro ADME. The following applies: peptide 9 μM, Opti-MEM. As for the experimental part: SEQ ID NO:2 was prepared as a C-terminal amidated analogue of SEQ ID NO:1. The stability of SEQ ID NO:1 and SEQ ID NO:2 was assessed in HEK293 and EA.hy926 cells grown in culture and their break down was monitored by LCMS over 60 min using the following procedure.
HEK293 (passage 24) or Ea.hy926 (passage 37) were seeded into tissue-culture-grade 96-well plates at a density of 20,000 cells/well. After 24 hr, cells were washed with PBS and replaced with Opti-MEM reduced serum media containing SEQ ID NO:1 or SEQ ID NO:2 (9 μM). Aliquots of equal volume were taken at T=0 and 60 min. SEQ ID NO:2 was added to control wells having media (no cells) only. Samples were immediately acidified in 0.1% TFA, snap frozen in dry ice and stored in −80° C. until analysed by LCMS.
Samples were analyzed by LC-MS/MS on a Shimadzu Nexera uHPLC (Japan) coupled to a Triple Tof 5600 mass spectrometer (ABSCIEX, Canada) equipped with a duo electrospray ion source. One μL of each extract was injected onto a 2.1 mm×100 mm Zorbax C18 1.8 um column (Agilent) at 200 μL/min. […] SEQ ID NO:1 and SEQ ID NO:2 were quantified using the […] doubly charged molecular ion from m/z 510.270 to 510.325. The data was acquired using Analyst TF 1.6 and quantification was carried out using MultiQuant 2.1.1 software (ABSCIEX, Canada).

The target of the next data set is T1, ECE1 (Homo sapiens, UniProt P42892).
T1 construct: purchased R & D systems 1784-ZN-010
T1 sequence (P42892 1-770): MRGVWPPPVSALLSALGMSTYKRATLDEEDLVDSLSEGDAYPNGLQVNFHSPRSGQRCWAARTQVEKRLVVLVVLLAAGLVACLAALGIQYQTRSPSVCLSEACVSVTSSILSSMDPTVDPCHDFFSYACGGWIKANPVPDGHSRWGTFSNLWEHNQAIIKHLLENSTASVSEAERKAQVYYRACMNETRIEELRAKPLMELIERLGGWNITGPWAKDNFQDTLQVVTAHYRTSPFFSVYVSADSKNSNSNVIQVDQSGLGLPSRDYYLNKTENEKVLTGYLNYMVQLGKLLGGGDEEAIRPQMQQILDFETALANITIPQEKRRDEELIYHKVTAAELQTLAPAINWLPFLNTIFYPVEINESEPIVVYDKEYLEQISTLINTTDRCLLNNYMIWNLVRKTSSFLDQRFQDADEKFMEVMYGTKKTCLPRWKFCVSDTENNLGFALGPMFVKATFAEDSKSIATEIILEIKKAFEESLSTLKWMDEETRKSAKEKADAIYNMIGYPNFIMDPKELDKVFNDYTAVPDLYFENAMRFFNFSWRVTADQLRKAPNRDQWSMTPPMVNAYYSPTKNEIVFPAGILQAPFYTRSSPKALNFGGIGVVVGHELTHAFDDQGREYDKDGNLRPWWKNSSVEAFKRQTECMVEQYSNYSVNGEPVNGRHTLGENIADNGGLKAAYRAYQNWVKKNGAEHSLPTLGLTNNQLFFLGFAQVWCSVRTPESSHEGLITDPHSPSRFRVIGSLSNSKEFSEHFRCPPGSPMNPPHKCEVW
The data set is described as follows: QFS assay of Aβ-degrading enzymes: ECE1 (Example 6). The format is biochemical. As for the experimental part:
Plate reader-based enzyme assays were performed using a quenched fluorescent substrate (QFS) in a 96-well format using a SpectraMAX M4 Microplate reader (Molecular Devices). The increase in fluorescence following addition of QFS (40 μM) was taken as evidence of enzyme activity. Fluorescence was monitored over 2 h at 37° C. using κEx=320 nm and λEm=405 nm. Assays were conducted in black 96-well plates. Specific enzyme activity was expressed as a rate of substrate cleavage calculated using a standard curve of 7-methoxy-coumarin-4-acetic acid.
In all plate reader-based enzyme assays using QFS, the reaction rate (μmol of substrate cleaved/min) was calculated using linear regression analysis (GraphPad Prism software version 8.01). The reaction rates calculated were used to generate the enzyme kinetic parameters Vmax and Km through non-linear regression analysis (GraphPad Prism software, version 8.01; Michaelis-Menten equation). Where indicated, enzyme activity in the presence of peptide was expressed as a % of the enzyme alone. Data were expressed as mean±SEM and statistical significance was determined using t-tests or one-way ANOVAs followed by Tukey's post-hoc test. P<0.05 was considered as statistically significant. […]
SEQ ID NO:2 was assessed in a QFS assay against enzymes NEP, ECE1, ECE2, ACE1, ACE2, IDE and MMP-2 using the method in Example 2 and the following procedure. […]

Where two headings read alike, the source gives them in different places.

On to “H-SLFELGKMIL-NH2 [SEQ ID NO:2, H2N-SLFELGKMIL-NH2]”, for which, in the data set with SARS-CoV-2 (200 ng/μL), the “viral RNA compared to PBS” value is “significantly reduced” and the “IL-6 expression compared to PBS” value was “significantly reduced”. In the data set on SARS-CoV-2 (400 ng/μL), the “viral RNA compared to PBS” value is listed as “significantly reduced”, the “viral titre compared to PBS” value is on record as “significantly reduced” and the “IL-6 expression compared to PBS” value is “significantly reduced”. Besides, the “relative amount remaining in the medium of endothelial cells at 60 min” value in the data set with EA.hy926 cells was 26%±5%. Further, on ECE1 (peptide 2 μM (FIG. 2c)), the “ECE1 activity compared with respective enzyme alone” value was “did not increase”. In addition, the “ECE1 activity, concentration dependence” value at ECE1 (peptide 0.9-26 μM) is recorded as “did not affect”.

(Values after patent US20240002441A1, “PEPTIDES AND USES THEREOF IN MODULATION OF AMYLOID-BETA PROTEIN DEGRADING PROTEASES” (priority 2020, published 2024).)
